Results published in US20220274979A1 (Bayer Pharma Aktiengesellschaft, priority 2018, published 2022).

What was measured:
[1] = biological target: T1, hSOS1 (hSOS1-mediated nucleotide exchange of hK-RasG12C) (Homo sapiens, UniProt Q07889); assay: Biochemical Assay 2: hK-RasG12C activation assay by hSOS1 at high GTP concentration (HTRF nucleotide exchange); conditions: high GTP (50 μM GTP)
T1 construct: hSOS1 (amino acid 564-1049); made in house; host or cells: E. coli BL21 (DE3)
T1 sequence (Q07889 with tags, fused parts or gaps): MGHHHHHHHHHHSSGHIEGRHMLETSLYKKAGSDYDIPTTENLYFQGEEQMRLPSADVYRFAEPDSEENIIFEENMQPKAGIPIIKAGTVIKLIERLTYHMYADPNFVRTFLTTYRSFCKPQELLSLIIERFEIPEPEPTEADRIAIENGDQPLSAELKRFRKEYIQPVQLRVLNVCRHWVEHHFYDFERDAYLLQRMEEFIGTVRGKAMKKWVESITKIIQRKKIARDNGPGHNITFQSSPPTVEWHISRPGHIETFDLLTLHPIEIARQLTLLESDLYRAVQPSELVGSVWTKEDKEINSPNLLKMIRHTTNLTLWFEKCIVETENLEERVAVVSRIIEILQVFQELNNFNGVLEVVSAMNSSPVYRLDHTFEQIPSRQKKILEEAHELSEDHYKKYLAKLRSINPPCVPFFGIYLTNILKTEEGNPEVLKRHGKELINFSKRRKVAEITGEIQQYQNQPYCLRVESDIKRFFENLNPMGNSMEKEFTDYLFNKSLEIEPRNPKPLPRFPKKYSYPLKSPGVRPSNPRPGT
Source text: Biochemical Assay 2: hK-RasG12C Activation Assay by hSOS1 at High GTP Concentration
This assay quantifies human SOS1-mediated nucleotide exchange of human K-Ras^G12C (hK-RasG12C) preloaded with a fluorescent […] and in presence of an excess of free GTP. Loaded hK-RasG12C generates a high HTRF-signal by energy transfer from antiGST-Terbium (FRET donor) bound to hK-Ras to the loaded fluorescent GDP analog (FRET-acceptor). hSOS1 activity exchanges the fluorescent GDP for non-fluorescent GTP and therefore leads to a reduction of the HTRF signal.
The fluorescent GDP-analog EDA-GDP-Dy647P1 (2′/3′-O-(2-Aminoethyl-carbamoyl)-guanosine-5′-diphosphate labelled with Dy647P1 (Dyomics GmbH, Germany)) was synthesized by Jena Biosciences GmbH (Germany) and supplied as a 1 mM aqueous solution.
Concentrations of protein batches used were optimized to be within the linear range of the HTRF signal.
Addition of 20 μl 1 M MgCl2 (Sigma) to final 40 mM and store on ice. Purification into buffer (10 mM HEPES pH 7.4 (Applichem), 150 mM NaCl (Sigma), 5 mM MgCl2 (Sigma)) by use of a PD-Minitrap desalting column (GE Healthcare). Concentration of 1 ml purified hK-Ras-GDP-Dy647 is approx. 4-5 μM.
The assay buffer contained 10 mM HEPES pH 7.4 (Applichem), 150 mM NaCl (Sigma), 5 mM MgCl2 (Sigma), 1 mM DTT (Thermofisher), 0.05% BSA Fraction V, pH 7.0, (ICN Biomedicals), 0.0025% (v/v) Igepal (Sigma).
A Ras working solution was prepared in assay buffer containing typically 80 nM loaded GST-hK-RasG12C-EDA-GDP-Dy647P1 and 2 nM antiGST-Tb (Cisbio, France).
Alternatively, the inhibitor control solution was prepared by supplementing the hSOS1 working solution with 20 μM of 6,7-dimethoxy-N-[(1R)-1-(1-naphthyl)ethyl]quinazolin-4-amine which was used to calibrate the assay.
(§1) Fifty nl of a 100-fold concentrated solution of the test compound in DMSO were transferred into a black microtiter test plate (384 or 1536, Greiner Bio-One, Germany) For this, either a Hummingbird liquid handler (Digilab, Mass., USA) or an Echo acoustic system (Labcyte, Calif., USA) was used.
(§2) All steps of the assay were performed at 20° C. A volume of 2.5 μl of the Ras working solution was added to all wells of the test plate using a Multidrop dispenser (Thermo Labsystems). After 2 min. preincubation, 2.5 μl of the hSOS1 working solution were added to all wells except for those wells at the side of the test plate that were subsequently filled with 2.5 μl of the inhibitor control solution. After 20 min. incubation the fluorescence was measured with a Pherastar (BMG, Germany) using the HTRF module (excitation 337 nm, emission 1:620 nm, emission 2:665 nm).
(§3) IC50 values were calculated by 4-Parameter fitting using a commercial software package (Genedata Screener, Switzerland).

[2] = biological target: T2, hK-RasG12C - hSOS1 interaction (Homo sapiens, UniProt Q07889); assay: Biochemical Assay 1: hK-RasG12C interaction assay with hSOS1 (HTRF); type: binding; conditions: for IC50: values expressed as IC50; for inhibition at 20 µM: read-out: Assay 1 (hKRAS, hSOS Interaction) activity (expressed as IC50, or as % inhibition at 20 μM)
T2 construct: hSOS1 (amino acid 564-1049); made in house; host or cells: E. coli BL21 (DE3)
T2 sequence (Q07889 with tags, fused parts or gaps): T1 sequence (Q07889 with tags, fused parts or gaps)
Protocol: Biochemical Assay 1: hK-RasG12C Interaction Assay with hSOS1
This assay quantifies the equilibrium interaction of human SOS1 (hSOS1) with human K-Ras^G12C (hK-RasG12C). Detection of the interaction is achieved by measuring homogenous time-resolved fluorescence resonance energy transfer (HTRF) from antiGST-Europium (FRET donor) bound to GST-K-RasG12C to anti-6His-XL665 bound to His-tagged hSOS1 (FRET-acceptor).
The assay buffer contained 5 mM HEPES pH 7.4 (Applichem), 150 mM NaCl (Sigma), 10 mM EDTA (Promega), 1 mM DTT (Thermofisher), 0.05% BSA Fraction V, pH 7.0, (ICN Biomedicals), 0.0025% (v/v) Igepal (Sigma) and 100 mM KF (FLUKA).
Concentrations of protein batches used were optimized to be within the linear range of the HTRF signal. A Ras working solution was prepared in assay buffer containing typically 10 nM GST-hK-RasG12C and 2 nM antiGST-Eu(K) (Cisbio, France). A SOS1 working solution was prepared in assay buffer containing typically 20 nM His-hSOS1 and 10 nM anti-6His-XL665 (Cisbio, France). An inhibitor control solution was prepared in assay buffer containing 10 nM anti-6His-XL665 without hSOS1.
as §1
as §2, with “[…]” for “min.”, “SOS1” for “hSOS1”, “[…]” for “20 min.”
as §3

Row | Structure (SMILES) | IC50 [1] [nM] | IC50 [2] [nM] | inhibition at 20 µM [2] [%]
1 | Cc1nc(NC(C)c2ccc(-c3ccccc3CN(C)C)s2)c2cc(OCCCO)ncc2n1 (stereo not drawn) [Example 76, 3-[(4-{[1-(5-{2-[(dimethylamino)methyl]phenyl}thiophen-2-yl)ethyl]amino}-2-methylpyrido[3,4-d]pyrimidin-6-yl)oxy]propan-1-ol] | 49.9 | 45.2 | 
2 | Cc1nc(NC(C)c2ccc(-c3ccccc3CN(C)C)s2)c2cc(N3CC(NC(=O)Cc4ccccc4)C3)ncc2n1 (stereo not drawn) [Example 89, N-[1-(4-{[1-(5-{2-[(dimethylamino)methyl]phenyl}thiophen-2-yl)ethyl]amino}-2-methylpyrido[3,4-d]pyrimidin-6-yl)azetidin-3-yl]-2-phenylacetamide] | 111 | 44.4 | 
3 | Cc1nc(NC(C)c2ccc(-c3ccccc3CO)s2)c2cc(F)ncc2n1 (stereo not drawn) [Example 68, [2-(5-{1-[(6-fluoro-2-methylpyrido[3,4-d]pyrimidin-4-yl)amino]ethyl}thiophen-2-yl)phenyl]methanol] | > 20000 |  | 43.8
4 | COc1cc2c(N[C@H](C)c3cccc(Br)c3)nc(C)nc2cn1 [Example 57, N-[(1R)-1-(3-bromophenyl)ethyl]-6-methoxy-2-methylpyrido[3,4-d]pyrimidin-4-amine] | 1230 | 1970 | 
5 | COCCOc1ccc2nc(C)nc(N[C@H](C)c3cccc(Br)c3)c2n1 [Example 30, N-[(1R)-1-(3-bromophenyl)ethyl]-6-(2-methoxyethoxy)-2-methylpyrido[3,2-d]pyrimidin-4-amine] | 5740 | 5430 | 
6 | Cc1nc(N[C@H](C)c2cccc(Br)c2)c2nc(N(C)C)ccc2n1 [Example 31] | ≥ 40000 | 17700 | 
7 | COc1cc2c(NC(C)c3cccc4c3cnn4C)nc(C)nc2cn1 (stereo not drawn) [Example 14, 6-methoxy-2-methyl-N-[1-(1-methyl-1H-indazol-4-yl)ethyl]pyrido[3,4-d]pyrimidin-4-amine] | 1950 | 1650 | 
8 | Cc1nc(N[C@H](C)c2ccc(F)cc2)c2cc(OC(C)C)ncc2n1 [Example 15] | 1900 | 1480 | 
9 | Cc1nc(N[C@H](C)c2cccc(Br)c2)c2nc(Oc3ccccc3)ncc2n1 [Example 25, N-[(1R)-1-(3-bromophenyl)ethyl]-2-methyl-6-phenoxypyrimido[5,4-d]pyrimidin-4-amine] | > 20000 |  | 23.7
10 | Cc1nc(N[C@H](C)c2cccc(Br)c2)c2cc(OCCN(C)C)ncc2n1 [Example 78, N-[(1R)-1-(3-bromophenyl)ethyl]-6-[2-(dimethylamino)ethoxy]-2-methylpyrido[3,4-d]pyrimidin-4-amine] | 1040 | 1280 | 
11 | Cc1nc(N[C@H](C)c2cccc(Br)c2)c2nc(N(C)C)ncc2n1 [Example 21] | > 20000 |  | 26.3
12 | CCOc1cc2c(N[C@H](C)c3ccc(Br)cc3)nc(C)nc2cn1 [Example 13, N-[(1R)-1-(4-bromophenyl)ethyl]-6-ethoxy-2-methylpyrido[3,4-d]pyrimidin-4-amine] | 1780 | 1220 | 
13 | CCOc1cc2c(N[C@H](C)c3ccc(C#N)cc3)nc(C)nc2cn1 [Example 18, 4-{(1R)-1-[(6-ethoxy-2-methylpyrido[3,4-d]pyrimidin-4-yl)amino]ethyl}benzonitrile] | 1010 | 1110 | 
14 | Cc1nc(N[C@H](C)c2cccc(Br)c2)c2cc(NCCN3CCOCC3)ncc2n1 [Example 39] | 1360 | 876 | 
15 | CC(=O)NCCOc1cc2c(N[C@H](C)c3cccc(Br)c3)nc(C)nc2cn1 [Example 62, N-{2-[(4-{[(1R)-1-(3-bromophenyl)ethyl]amino}-2-methylpyrido[3,4-d]pyrimidin-6-yl)oxy]ethyl}acetamide] | 443 | 291 | 
16 | Cc1nc(NC(C)c2ccc(-c3ccccc3CN(C)C)s2)c2cc(N3CC(NC(=O)C4CCCCC4)C3)ncc2n1 (stereo not drawn) [Example 90, N-[1-(4-{[1-(5-{2-[(dimethylamino)methyl]phenyl}thiophen-2-yl)ethyl]amino}-2-methylpyrido[3,4-d]pyrimidin-6-yl)azetidin-3-yl]cyclohexanecarboxamide] | 154 | 63 | 
17 | Cc1nc(N[C@H](C)c2cccc(Br)c2)c2nc(OCc3ccccc3)ncc2n1 [Example 20, 6-(benzyloxy)-N-[(1R)-1-(3-bromophenyl)ethyl]-2-methylpyrimido[5,4-d]pyrimidin-4-amine] | > 20000 |  | 30
18 | Cc1nc(NC(C)c2ccc(-c3ccccc3CN(C)C)s2)c2cc(N3CC(NC(=O)CC4CC4)C3)ncc2n1 (stereo not drawn) [Example 91, 2-cyclopropyl-N-[1-(4-{[1-(5-{2-[(dimethylamino)methyl]phenyl}thiophen-2-yl)ethyl]amino}-2-methylpyrido[3,4-d]pyrimidin-6-yl)azetidin-3-yl]acetamide] | 137 | 55.1 | 
19 | Cc1nc(N[C@H](C)c2cccc(Br)c2)c2cc(NCCS(C)(=O)=O)ncc2n1 [Example 83] | 1340 | 575 | 
20 | Cc1nc(NC(C)c2ccc(-c3ccccc3CN(C)C)s2)c2cc(NCCn3ccnc3)ncc2n1 (stereo not drawn) [Example 56, N4-[1-(5-{2-[(dimethylamino)methyl]phenyl}-2-thienyl)ethyl]-N6-[2-(1H-imidazol-1-yl)ethyl]-2-methylpyrido[3,4-d]pyrimidine-4,6-diamine] | 93.9 | 39.4 | 
21 | Cc1nc(N[C@H](C)c2cccc(Br)c2)c2nc(N3CCOCC3)ncc2n1 [Example 22, N-[(1R)-1-(3-bromophenyl)ethyl]-2-methyl-6-(morpholin-4-yl)pyrimido[5,4-d]pyrimidin-4-amine] | 1960 | 1620 | 
